Experimental data as given in US20220227789A1, “NOVEL INDOLIZINE-2-CARBOXAMIDES ACTIVE AGAINST THE HEPATITIS B VIRUS (HBV)” (AiCuris GmbH & Co. KG, priority 2019, published 2022).

Test system: HBV
Experiment: HBV replication assay: HBV DNA from the supernatants of HepAD38 cells
Format: cell-based
Conditions: Hepatitis B virus, 144 h, HBV DNA in supernatant by qPCR at day 6, read-out: Cell Activity
Description: Determination of HBV DNA from the Supernatants of HepAD38 Cells
The anti-HBV activity was analysed in the stable transfected cell line HepAD38, which has been described to secrete high levels of HBV virion particles (Ladner et al., 1997). In brief, HepAD38 cells were cultured at 37° C. at 5% CO2 and 95% humidity in 200 μl maintenance medium, which was Dulbecco's modified Eagle's medium/Nutrient Mixture F-12 (Gibco, Karlsruhe), 10% fetal bovine serum (PAN Biotech Aidenbach) supplemented with 50 μg/ml penicillin/streptomycin (Gibco, Karlsruhe), 2 mM L-glutamine (PAN Biotech, Aidenbach), 400 μg/ml G418 (AppliChem, Darmstadt) and 0.3 μg/ml tetracycline. Cells were subcultured once a week in a 1:5 ratio, but were usually not passaged more than ten times. For the assay 60,000 cells were seeded in maintenance medium without any tetracycline into each well of a 96-well plate and treated with serial half-log dilutions of test compound. To minimize edge effects the outer 36 wells of the plate were not used but were filled with assay medium. On each assay plate six wells for the virus control (untreated HepAD38 cells) and six wells for the cell control (HepAD38 cells treated with 0.3 μg/ml tetracycline) were allocated, respectively. In addition, one plate set with reference inhibitors like BAY 41-4109, entecavir, and lamivudine instead of screening compounds were prepared in each experiment. In general, experiments were performed thrice in triplicates. At day 6 HBV DNA from 100 μl filtrated cell culture supernatant (AcroPrep Advance 96 Filter Plate, […] Supor membran, PALL GmbH, Dreieich) was automatically purified on the MagNa Pure LC instrument using the MagNA Pure 96 DNA and Viral NA Small Volume Kit (Roche Diagnostics, Mannheim) according to the instructions of the manufacturer. EC50 values were calculated from relative copy numbers of HBV DNA In brief, 5 μl of the 100 μl eluate containing HBV DNA were subjected to PCR LC480 Probes Master Kit (Roche) together with 1 μM antisense primer […], 0.5 μM sense primer […], 0.3 μM hybprobes […]-FL and LC640-[…]-PH (TIBMolBiol, Berlin) to a final volume of […]. The PCR was performed on the Light Cycler 480 real time system (Roche Diagnostics, Mannheim) using the following protocol: Pre-incubation for 1 min at 95° C., amplification: 40 cycles×(10 sec at 95° C., 50 sec at 60° C., 1 sec at 70° C.), cooling for 10 sec at 40° C. Viral load was quantitated against known standards using HBV plasmid DNA of pCH-9/3091 (Nassal et al., 1990, Cell 63: 1357-1363) and the LightCycler 480 SW 1.5 software (Roche Diagnostics, Mannheim) and EC50 values were calculated using non-linear regression with GraphPad Prism 6 (GraphPad Software Inc., La Jolla, USA).

`O=C(c1cc2c(Cl)cccn2c1)N1CCc2n[nH]c(C(=O)N3CC(F)(F)CC34CC4)c2C1` [Example 1, 8-chloro-2-(3-{6,6-difluoro-4-azaspiro[2.4]heptane-4-carbonyl}-2H,4H,5H,6H,7H-pyrazolo[4,3-c]pyridine-5-carbonyl)indolizine] and `O=C(c1cc2c(F)cc(F)cn2c1)N1CCc2n[nH]c(C(=O)N3CC(F)(F)CC34CC4)c2C1` [Example 2, 6,8-difluoro-2-(3-{6,6-difluoro-4-azaspiro[2.4]heptane-4-carbonyl}-2H,4H,5H,6H,7H-pyrazolo[4,3-c]pyridine-5-carbonyl)indolizine] fall in the same range of EC50: 1 to 10 µM for the first, 1 to 10 µM for the second.

`CC1Cc2[nH]nc(-c3cscn3)c2CN1C(=O)c1cn2ccccc2c1Br` (stereo not shown) [Example 11, 1-bromo-2-[6-methyl-3-(1,3-thiazol-4-yl)-1H,4H,5H,6H,7H-pyrazolo[4,3-c]pyridine-5-carbonyl]indolizine] gave an EC50 of 1 to 10 µM.

Target: T1, HBV core protein (C-terminal truncated, 149 aa assembly domain) (Hepatitis B virus genotype D subtype adw, UniProt P03147, C107A/C48A/C61A)
T1 construct: The C-terminal truncated core protein containing 149 amino acids of the N-terminal assembly domain; made in house; host or cells: E. coli BL21 (DE3) Rosetta2, plasmid pET21b
Experiment: Biochemical capsid assembly assay (fluorescence quenching)
Conditions: not given
Description: Biochemical Capsid Assembly Assay
The screening for assembly effector activity was done based on a fluorescence quenching assay published by Zlotnick et al. (2007). The C-terminal truncated core protein containing 149 amino acids of the N-terminal assembly domain fused to a unique cysteine residue at position 150 and was expressed in E. coli using the pET expression system (Merck Chemicals, Darmstadt). Purification of core dimer protein was performed using a sequence of size exclusion chromatography steps. In brief, the cell pellet from 1 L BL21 (DE3) Rosetta2 culture expressing the coding sequence of core protein cloned NdeI/XhoI into expression plasmid pET21b was treated for 1 h on ice with a native lysis buffer (Qproteome Bacterial Protein Prep Kit; Qiagen, Hilden). After a centrifugation step the supernatant was precipitated during 2 h stirring on ice with 0.23 g/ml of solid ammonium sulfate. Following further centrifugation the resulting pellet was resolved in buffer A (100 mM Tris, pH 7.5; 100 mM NaCl; 2 mM DTT) and was subsequently loaded onto a buffer A equilibrated CaptoCore 700 column (GE HealthCare, Frankfurt). The column flow through containing the assembled HBV capsid was dialyzed against buffer N (50 mM NaHCO3 pH 9.6; 5 mM DTT) before urea was added to a final concentration of 3M to dissociate the capsid into core dimers for 1.5 h on ice. The protein solution was then loaded onto a 1 L Sephacryl 5300 column. After elution with buffer N core dimer containing fractions were identified by SDS-PAGE and subsequently pooled and dialyzed against 50 mM HEPES pH 7.5; 5 mM DTT. To improve the assembly capacity of the purified core dimers a second round of assembly and disassembly starting with the addition of 5 M NaCl and including the size exclusion chromatography steps described above was performed. From the last chromatography step core dimer containing fractions were pooled and stored in aliquots at concentrations between 1.5 to 2.0 mg/ml at −80° C.
Immediately before labelling the core protein was reduced by adding freshly prepared DTT in a final concentration of 20 mM. After […] on ice storage buffer and DTT was removed using a Sephadex G-25 column (GE HealthCare, Frankfurt) and 50 mM HEPES, pH 7.5. For labelling 1.6 mg/ml core protein was incubated at 4° C. and darkness overnight with BODIPY-FL maleimide (Invitrogen, Karlsruhe) in a final concentration of 1 mM. After labelling the free dye was removed by an additional desalting step using a Sephadex G-25 column. Labelled core dimers were stored in aliquots at 4° C. In the dimeric state the fluorescence signal of the labelled core protein is high and is quenched during the assembly of the core dimers to high molecular capsid structures. The screening assay was performed in black 384 well microtiter plates in a total assay volume of 10 μl using 50 mM HEPES pH 7.5 and 1.0 to 2.0 μM labelled core protein. Each screening compound was added in 8 different concentrations using a 0.5 log-unit serial dilution starting at a final concentration of 100 μM, 31.6 μM or 10 μM, In any case the DMSO concentration over the entire microtiter plate was 0.5%. The assembly reaction was started by the injection of NaCl to a final concentration of […] which induces the assembly process to approximately 25% of the maximal quenched signal. 6 min after starting the reaction the fluorescence signal was measured using a Clariostar plate reader (BMG Labtech, Ortenberg) with an excitation of 477 nm and an emission of 525 nm. As 100% and 0% assembly control HEPES buffer containing 2.5 M and 0 M NaCl was used. Experiments were performed thrice in triplicates. EC50 values were calculated by non-linear regression analysis using the Graph Pad Prism 6 software (GraphPad Software, La Jolla, USA).

T1 sequence (P03147 1-150, looked up, stated change not applied): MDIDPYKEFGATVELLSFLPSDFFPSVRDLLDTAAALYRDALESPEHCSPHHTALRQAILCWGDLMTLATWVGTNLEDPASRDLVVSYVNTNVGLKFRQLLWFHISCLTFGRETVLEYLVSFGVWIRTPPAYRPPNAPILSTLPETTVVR

With `O=C(c1cc2ccccn2c1)N1CCc2onc(-c3cscn3)c2C1` [Example 36, 2-[3-(1,3-thiazol-4-yl)-4H,5H,6H,7H-[1,2]oxazolo[4,5-c]pyridine-5-carbonyl]indolizine] the IC50 was < 5 µM.

Same assay, conditions: BODIPY-FL labelled core protein, assembly started with NaCl, read after 6 min; read-out: Assembly Activity

`O=C(c1cc2ccccn2c1)N1CCc2[nH]nc(-n3ccnn3)c2C1` [Example 28, 2-[3-(1H-1,2,3-triazol-1-yl)-1H,4H,5H,6H,7H-pyrazolo[4,3-c]pyridine-5-carbonyl]indolizine] and `O=C(c1cc2ccccn2c1)N1CCc2[nH]nc(-c3ccon3)c2C1` [Example 31, 2-[3-(1,2-oxazol-3-yl)-1H,4H,5H,6H,7H-pyrazolo[4,3-c]pyridine-5-carbonyl]indolizine] cannot be ordered by IC50: < 100 µM for the first, < 5 µM for the second.

`O=C(NCC1CCCO1)c1[nH]nc2c1CN(C(=O)c1cc3ccccn3c1)CC2` (stereo not shown) [Example 29, 5-(indolizine-2-carbonyl)-N-[(oxolan-2-yl)methyl]-2H,4H,5H,6H,7H-pyrazolo[4,3-c]pyridine-3-carboxamide] and `O=C(NCC1CCCOC1)c1[nH]nc2c1CN(C(=O)c1cc3ccccn3c1)CC2` (stereo not shown) [Example 30, 5-(indolizine-2-carbonyl)-N-[(oxan-3-yl)methyl]-2H,4H,5H,6H,7H-pyrazolo[4,3-c]pyridine-3-carboxamide] cannot be ordered by IC50: < 100 µM for the first, < 100 µM for the second.

`O=C(NC1(C(F)(F)F)CC1)c1[nH]nc2c1CN(C(=O)c1cc3ccccn3c1)CC2` [Example 33, 5-(indolizine-2-carbonyl)-N-[1-(trifluoromethyl)cyclopropyl]-2H,4H,5H,6H,7H-pyrazolo[4,3-c]pyridine-3-carboxamide] and `C[C@H](NC(=O)c1[nH]nc2c1CN(C(=O)c1cc3ccccn3c1)CC2)C(F)(F)F` [Example 45, 5-(indolizine-2-carbonyl)-N-[(2S)-1,1,1-trifluoropropan-2-yl]-2H,4H,5H,6H,7H-pyrazolo[4,3-c]pyridine-3-carboxamide] cannot be ordered by IC50: < 100 µM for the first, < 100 µM for the second.

`O=C(c1cc2ccccn2c1)N1CCc2noc(-c3cscn3)c2C1` [Example 34, 2-[3-(1,3-thiazol-4-yl)-4H,5H,6H,7H-[1,2]oxazolo[4,3-c]pyridine-5-carbonyl]indolizine] and `O=C(c1cc2ccccn2c1)N1CCc2[nH]nc(-c3cscn3)c2C1` [Example 37, 2-[3-(1,3-thiazol-4-yl)-1H,4H,5H,6H,7H-pyrazolo[4,3-c]pyridine-5-carbonyl]indolizine] cannot be ordered by IC50: < 5 µM for the first, < 5 µM for the second.

`CC(C)(NC(=O)c1[nH]nc2c1CN(C(=O)c1cc3ccccn3c1)CC2)C(F)(F)F` [Example 35, 5-(indolizine-2-carbonyl)-N-(1,1,1-trifluoro-2-methylpropan-2-yl)-2H,4H,5H,6H,7H-pyrazolo[4,3-c]pyridine-3-carboxamide] and `C[C@@H](NC(=O)c1[nH]nc2c1CN(C(=O)c1cc3ccccn3c1)CC2)C(F)(F)F` [Example 46, 5-(indolizine-2-carbonyl)-N-[(2R)-1,1,1-trifluoropropan-2-yl]-2H,4H,5H,6H,7H-pyrazolo[4,3-c]pyridine-3-carboxamide] cannot be ordered by IC50: < 100 µM for the first, < 100 µM for the second.

`CC(NC(=O)c1[nH]nc2c1CN(C(=O)c1cc3ccccn3c1)CC2)C1COC1` (stereo not shown) [Example 41, 5-(indolizine-2-carbonyl)-N-[1-(oxetan-3-yl)ethyl]-2H,4H,5H,6H,7H-pyrazolo[4,3-c]pyridine-3-carboxamide] and `CC1Cc2n[nH]c(C(=O)NC(C)C(F)(F)F)c2CN1C(=O)c1cc2ccccn2c1` (stereo not shown) [Example 48, 5-(indolizine-2-carbonyl)-6-methyl-N-(1,1,1-trifluoropropan-2-yl)-2H,4H,5H,6H,7H-pyrazolo[4,3-c]pyridine-3-carboxamide] cannot be ordered by IC50: < 100 µM for the first, < 100 µM for the second.

`O=C(c1cc2ccccn2c1)N1CCn2ncc(-c3cscn3)c2C1` [Example 43, 2-[3-(1,3-thiazol-4-yl)-4H,5H,6H,7H-pyrazolo[1,5-a]pyrazine-5-carbonyl]indolizine] and `CC1Cc2[nH]nc(-c3cscn3)c2CN1C(=O)c1cc2c(F)cc(F)cn2c1` (stereo not shown) [Example 44, 6,8-difluoro-2-[6-methyl-3-(1,3-thiazol-4-yl)-1H,4H,5H,6H,7H-pyrazolo[4,3-c]pyridine-5-carbonyl]indolizine] cannot be ordered by IC50: < 5 µM for the first, < 5 µM for the second.

With `CC1Cc2n[nH]c(C(=O)NC(C)C(F)(F)F)c2CN1C(=O)c1cc2c(Cl)cccn2c1` (stereo not shown) [Example 47, 5-(8-chloroindolizine-2-carbonyl)-6-methyl-N-(1,1,1-trifluoropropan-2-yl)-2H,4H,5H,6H,7H-pyrazolo[4,3-c]pyridine-3-carboxamide] the IC50 was < 100 µM.
